According to ChEMBL document CHEMBL1649270, “ST-246 inhibits in vivo poxvirus dissemination, virus shedding, and systemic disease manifestation” (2009):
Calls of active or inactive are those of the source. No cut-off for these calls is given here.

What was measured:
Vaccinia virus WR [1] = assay: Antiviral activity against Vaccinia virus WR ATCC VR-1354 infected through dermal scarification route in BALB/c mouse assessed as reduction of viral load in blood at 100 mg/kg, po qd measured after 5 days postinfection by RT-PCR analysis relative to control; type: functional
Vaccinia virus WR [2] = assay: Antiviral activity against Vaccinia virus WR ATCC VR-1354 infected through subcutaneous route in BALB/c mouse assessed as protection against virus-induced systemic disease symptoms at 100 mg/kg, po qd measured after 9 days postinfection; type: functional, organism-based; set-up: dose 100 mg/kg
Vaccinia virus WR [3] = assay: Antiviral activity against Vaccinia virus WR ATCC VR-1354 infected through percutaneous route in BALB/c mouse assessed as reduction of viral load in liver at 100 mg/kg, po qd measured after 7 days postinfection by RT-PCR analysis relative to control; type: functional, organism-based; set-up: dose 100 mg/kg
Vaccinia virus WR [4] = assay: Antiviral activity against Vaccinia virus WR ATCC VR-1354 infected through percutaneous route in BALB/c mouse assessed as reduction of viral load in blood at 100 mg/kg, po qd measured after 5 days postinfection by RT-PCR analysis relative to control; type: functional
Vaccinia virus WR [5] = assay: Antiviral activity against Vaccinia virus WR ATCC VR-1354 infected through percutaneous route in BALB/c mouse assessed as reduction of viral load in blood at 100 mg/kg, po qd measured after 3 days postinfection by RT-PCR analysis relative to control; type: functional
Vaccinia virus WR [6] = assay: Antiviral activity against Vaccinia virus WR ATCC VR-1354 infected through subcutaneous route in BALB/c mouse assessed as reduction of viral load in lung at 100 mg/kg, po qd measured after 3 to 5 days postinfection by RT-PCR analysis relative to control; type: functional
Vaccinia virus WR [7] = assay: Antiviral activity against Vaccinia virus WR ATCC VR-1354 infected through percutaneous route in BALB/c mouse assessed as protection against hypothermia at 100 mg/kg, po qd for 1 to 3 days measured on day 6; type: functional, organism-based; set-up: dose 100 mg/kg

**Q.** `O=C(NN1C(=O)[C@@H]2[C@@H]3C=C[C@@H]([C@H]4C[C@@H]34)[C@@H]2C1=O)c1ccc(C(F)(F)F)cc1` [TECOVIRIMAT] was tested. Which “fold change (FC)” value (Vaccinia virus WR [1]) did it give?
**A.** 260

**Q.** What about the Activity (Vaccinia virus WR [2]) of the same molecule?
**A.** Active

**Q.** And the Activity (Vaccinia virus WR [3])?
**A.** Active

**Q.** What about the “fold change (FC)” value (Vaccinia virus WR [4]) of the same molecule?
**A.** 90

**Q.** What about the “fold change (FC)” value (Vaccinia virus WR [5]) of the same molecule?
**A.** 8

**Q.** And the “fold change (FC)” value (Vaccinia virus WR [6])?
**A.** 30

**Q.** What about the Activity (Vaccinia virus WR [7]) of the same molecule?
**A.** Active
